# Where two headings read alike, the source gives them in different places.
# Key:
# [1] = target: T1, EGFR[T790M/C797S/d746-750] (Homo sapiens, UniProt P00533, C797S/DEL746-750/T790M); experiment: Inhibition of EGFR[T790M/C797S/d746-750] biochemical enzymatic activity (HTRF)
# T1 construct: purchased Carna Bio
# Procedure: (§1) Biological Example 1: Inhibition of EGFR WT and Mutant Biochemical Enzymatic Activity
# (§2) The inhibition potency of compounds against these enzymes was assessed using Homogenous Time Resolved Fluorescence approach (HTRF, CisBio. Cat No. 62TKOPEJ).
# (§3) Inhibitory effects of the compounds were determined by measuring the enzymatic activity of EGFR enzyme phosphorylates 1 μM TK Substrate-biotin in the presence of 1 mM adenosine-5′-triphosphate (ATP) and varying concentrations of the test compound. The enzyme reaction buffer contains 5 mM MgCl2, 1 mM MnC12, 0.01% CHAPS, 1 mM dithiothreitol (DTT), 0.5% dimethylsulfoxide (DMSO), and 1× supplemented enzymatic buffer. The WT and mutant EGFR enzymes (SignalChem) were added to plates containing inhibitors, followed by activation of the kinase reaction by addition of ATP and peptide substrates. After incubation for 1 h at room temperature, the reaction was stopped by the addition of the detection reagent mix containing EDTA. The fluorescence was measured at 615 nm and 665 nm, respectively with excitation wavelength at 320 nm. The calculated signal ratio of 665 nm/615 nm is proportional to the kinase activity. The concentration of compound producing 50% inhibition of the respective kinase (IC50) was calculated using four-parameter logistic fit with XL-FIT.
# EGFR L858R = target: T2, EGFR L858R (Homo sapiens, UniProt P00533, L858R); experiment: Inhibition of EGFR L858R biochemical enzymatic activity (HTRF); settings: 1 mM ATP
# T2 construct: purchased Carna Bio
# T2 sequence (P00533 25-1210 L858R): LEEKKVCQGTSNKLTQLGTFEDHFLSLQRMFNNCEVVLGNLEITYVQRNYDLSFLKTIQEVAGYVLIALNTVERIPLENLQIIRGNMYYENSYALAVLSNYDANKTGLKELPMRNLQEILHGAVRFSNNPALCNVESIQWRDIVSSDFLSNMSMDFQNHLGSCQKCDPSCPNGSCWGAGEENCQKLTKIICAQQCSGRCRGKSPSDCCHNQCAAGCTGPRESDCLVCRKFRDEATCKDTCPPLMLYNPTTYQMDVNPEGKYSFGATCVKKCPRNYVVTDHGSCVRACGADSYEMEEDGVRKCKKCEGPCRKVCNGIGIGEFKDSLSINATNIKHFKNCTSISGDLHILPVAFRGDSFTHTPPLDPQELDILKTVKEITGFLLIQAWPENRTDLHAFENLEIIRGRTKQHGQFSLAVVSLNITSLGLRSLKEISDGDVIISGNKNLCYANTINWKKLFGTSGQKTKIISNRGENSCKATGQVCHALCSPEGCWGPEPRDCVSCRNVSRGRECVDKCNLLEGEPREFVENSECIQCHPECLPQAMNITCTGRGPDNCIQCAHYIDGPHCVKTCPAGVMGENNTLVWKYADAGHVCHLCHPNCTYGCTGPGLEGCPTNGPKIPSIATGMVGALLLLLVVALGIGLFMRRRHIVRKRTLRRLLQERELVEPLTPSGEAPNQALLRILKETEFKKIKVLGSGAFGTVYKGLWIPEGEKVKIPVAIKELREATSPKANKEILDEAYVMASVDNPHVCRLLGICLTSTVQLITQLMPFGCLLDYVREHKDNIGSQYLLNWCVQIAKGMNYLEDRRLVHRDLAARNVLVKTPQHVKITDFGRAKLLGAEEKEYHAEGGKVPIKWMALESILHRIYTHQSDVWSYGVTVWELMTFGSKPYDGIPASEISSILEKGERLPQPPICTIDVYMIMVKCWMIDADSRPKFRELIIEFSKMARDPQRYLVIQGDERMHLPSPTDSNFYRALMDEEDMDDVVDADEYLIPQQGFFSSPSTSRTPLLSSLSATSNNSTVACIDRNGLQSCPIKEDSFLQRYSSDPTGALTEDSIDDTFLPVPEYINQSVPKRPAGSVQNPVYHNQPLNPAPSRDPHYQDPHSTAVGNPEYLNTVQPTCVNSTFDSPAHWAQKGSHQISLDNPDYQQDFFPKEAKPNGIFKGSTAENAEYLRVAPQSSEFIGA
# Procedure: as §1, §2, §3
# EGFR[T790M/C797S/L858R] = target: T3, EGFR[T790M/C797S/L858R] (Homo sapiens, UniProt P00533, C797S/L858R/T790M); experiment: Inhibition of EGFR[T790M/C797S/L858R] biochemical enzymatic activity (HTRF); settings: 1 mM ATP
# T3 construct: purchased Carna Bio
# T3 sequence (P00533 25-1210 T790M/C797S/L858R): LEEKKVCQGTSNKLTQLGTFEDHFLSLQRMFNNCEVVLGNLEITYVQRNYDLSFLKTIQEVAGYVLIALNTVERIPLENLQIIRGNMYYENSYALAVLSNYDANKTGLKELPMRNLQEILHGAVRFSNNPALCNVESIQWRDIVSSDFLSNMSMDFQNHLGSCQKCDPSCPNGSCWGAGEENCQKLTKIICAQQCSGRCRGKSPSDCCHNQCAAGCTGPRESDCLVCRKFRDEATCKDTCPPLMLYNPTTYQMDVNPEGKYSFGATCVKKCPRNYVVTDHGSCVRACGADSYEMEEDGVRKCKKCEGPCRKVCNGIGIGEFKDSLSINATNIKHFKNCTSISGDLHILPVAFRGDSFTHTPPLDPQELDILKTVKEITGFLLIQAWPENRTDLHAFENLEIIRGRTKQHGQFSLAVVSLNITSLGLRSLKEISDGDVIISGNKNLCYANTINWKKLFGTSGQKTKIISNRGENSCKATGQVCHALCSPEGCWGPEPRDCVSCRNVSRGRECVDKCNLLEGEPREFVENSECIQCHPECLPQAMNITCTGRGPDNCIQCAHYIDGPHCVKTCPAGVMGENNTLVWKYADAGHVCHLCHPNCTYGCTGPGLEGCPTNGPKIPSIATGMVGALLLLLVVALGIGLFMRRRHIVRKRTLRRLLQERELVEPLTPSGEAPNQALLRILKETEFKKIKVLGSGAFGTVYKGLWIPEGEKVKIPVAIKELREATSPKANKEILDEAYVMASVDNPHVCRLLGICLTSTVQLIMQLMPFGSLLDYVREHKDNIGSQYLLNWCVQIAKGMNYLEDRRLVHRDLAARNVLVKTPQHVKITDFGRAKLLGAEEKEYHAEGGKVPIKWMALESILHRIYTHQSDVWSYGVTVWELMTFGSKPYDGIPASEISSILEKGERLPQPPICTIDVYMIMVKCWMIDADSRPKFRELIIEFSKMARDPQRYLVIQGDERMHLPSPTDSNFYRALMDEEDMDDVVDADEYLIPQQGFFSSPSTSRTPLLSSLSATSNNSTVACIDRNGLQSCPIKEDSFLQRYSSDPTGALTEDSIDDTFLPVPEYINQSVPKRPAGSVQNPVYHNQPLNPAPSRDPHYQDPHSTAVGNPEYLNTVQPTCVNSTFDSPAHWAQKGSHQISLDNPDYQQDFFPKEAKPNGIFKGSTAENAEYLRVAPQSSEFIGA
# Procedure: as §1, §2, §3
# EGFR Exon19Del = target: T4, EGFR Exon19Del (Homo sapiens, UniProt P00533, DEL746-750); experiment: Inhibition of EGFR Exon19Del biochemical enzymatic activity (HTRF); settings: read-out: IC50 @Del19
# T4 construct: purchased Carna Bio
# T4 sequence (P00533 with tags, fused parts or gaps DEL746-750 limits assumed): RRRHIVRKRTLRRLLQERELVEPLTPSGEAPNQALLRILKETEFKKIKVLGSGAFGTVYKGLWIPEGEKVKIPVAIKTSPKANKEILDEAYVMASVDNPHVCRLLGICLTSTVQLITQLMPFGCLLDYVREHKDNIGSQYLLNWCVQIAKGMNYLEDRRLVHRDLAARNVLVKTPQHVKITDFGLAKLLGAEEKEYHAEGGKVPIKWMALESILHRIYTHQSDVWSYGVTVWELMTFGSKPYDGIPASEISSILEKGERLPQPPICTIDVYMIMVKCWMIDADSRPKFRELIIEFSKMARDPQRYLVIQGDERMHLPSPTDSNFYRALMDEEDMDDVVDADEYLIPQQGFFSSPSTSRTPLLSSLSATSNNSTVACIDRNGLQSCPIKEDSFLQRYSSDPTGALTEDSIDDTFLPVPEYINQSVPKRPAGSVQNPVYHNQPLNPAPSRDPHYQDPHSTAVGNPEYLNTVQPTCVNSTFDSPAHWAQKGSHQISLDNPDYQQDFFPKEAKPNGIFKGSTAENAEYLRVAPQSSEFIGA
# Procedure: as §1, §2, §3
# EGFR wild type = target: T5, EGFR wild type (Homo sapiens, UniProt P00533); experiment: Inhibition of EGFR wild type biochemical enzymatic activity (HTRF); settings: 1 mM ATP
# T5 construct: purchased Carna Bio
# Procedure: as §1, §2, §3
# EGFR L858R/T790M = target: T6, EGFR L858R/T790M (Homo sapiens, UniProt P00533, L858R/T790M); experiment: Inhibition of EGFR L858R/T790M biochemical enzymatic activity (HTRF); settings: 1 mM ATP
# T6 construct: purchased Carna Bio
# Procedure: as §1, §2, §3
# EGFR (C797S L858R) = target: T7, EGFR (C797S L858R) (Homo sapiens, UniProt P00533, C797S/L858R); experiment: Inhibition of EGFR (C797S L858R) biochemical enzymatic activity (HTRF); settings: 1 mM ATP
# T7 construct: purchased signalchem
# Procedure: as §1, §2, §3
# [2] = system: Ba/F3 cells expressing EGFR mutations; experiment: Cell proliferation assay, Ba/F3 cells expressing EGFR mutations (CellTiter-Glo, 72 hours); type: cell-based
# Procedure: (§4) Biological Example 2: Cell Proliferation Assays
# (§5) Ba/F3 cells expressing EGFR mutations were seeded in 384-well plates at 5000 cells/well in RPMI1640 medium containing […]. PC-9 at 500 cells/well was seeded into 384-well plates in RPMI1640 medium with 10% FBS. After overnight incubation, the assay plates were dosed with compounds at a series of concentrations. Alongside dosing the assay plates, the day 0 plate was processed using CellTiter-Glo® Luminescent Cell Viability Assay (Promega) to measure the number of viable cells (G0). The assay plates were further incubated for 72 hours and the number of viable cells (G3) was measured. The percentage of proliferation was calculated as: […]=100×(G3 value of sample well−G0 value)/(G3 value of DMSO control−G0 value). The concentration of compound producing 50% proliferation inhibition (GI50) was further calculated in best-fit curves using XLFit software. N/A=not available.
# PC-9 = experiment: Cell proliferation assay, PC-9 cells (CellTiter-Glo, 72 hours); type: cell-based; settings: PC9 cells, read-out: GI50 PC9
# Procedure: as §4, §5
# EGFR Exon19Del/T790M = target: T8, EGFR Exon19Del/T790M (Homo sapiens, UniProt P00533, DEL746-750/T790M); experiment: Inhibition of EGFR Exon19Del/T790M biochemical enzymatic activity (HTRF); settings: 1 mM ATP
# T8 construct: purchased Carna Bio
# T8 sequence (P00533 with tags, fused parts or gaps DEL746-750/T790M limits assumed): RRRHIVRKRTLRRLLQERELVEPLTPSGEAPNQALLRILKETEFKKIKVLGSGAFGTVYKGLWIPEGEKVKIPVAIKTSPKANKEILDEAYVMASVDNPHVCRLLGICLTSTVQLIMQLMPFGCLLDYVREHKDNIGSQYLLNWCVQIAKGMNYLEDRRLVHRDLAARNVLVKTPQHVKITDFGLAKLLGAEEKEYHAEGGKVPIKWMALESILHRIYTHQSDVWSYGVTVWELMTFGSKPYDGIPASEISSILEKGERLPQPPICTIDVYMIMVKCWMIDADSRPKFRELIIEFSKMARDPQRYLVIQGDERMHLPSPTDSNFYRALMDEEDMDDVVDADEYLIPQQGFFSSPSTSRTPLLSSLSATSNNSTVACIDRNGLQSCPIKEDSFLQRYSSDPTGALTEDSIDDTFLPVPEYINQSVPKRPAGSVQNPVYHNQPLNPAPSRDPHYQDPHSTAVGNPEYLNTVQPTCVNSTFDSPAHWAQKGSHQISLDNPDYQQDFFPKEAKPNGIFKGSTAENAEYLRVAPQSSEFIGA
# Procedure: as §1, §2, §3
# EGFR (d746-750 C797S) = target: T9, EGFR (d746-750 C797S) (Homo sapiens, UniProt P00533, C797S/DEL746-750); experiment: Inhibition of EGFR (d746-750 C797S) biochemical enzymatic activity (HTRF); settings: 1 mM ATP
# T9 construct: purchased signalchem
# T9 sequence (P00533 with tags, fused parts or gaps DEL746-750/C797S limits assumed): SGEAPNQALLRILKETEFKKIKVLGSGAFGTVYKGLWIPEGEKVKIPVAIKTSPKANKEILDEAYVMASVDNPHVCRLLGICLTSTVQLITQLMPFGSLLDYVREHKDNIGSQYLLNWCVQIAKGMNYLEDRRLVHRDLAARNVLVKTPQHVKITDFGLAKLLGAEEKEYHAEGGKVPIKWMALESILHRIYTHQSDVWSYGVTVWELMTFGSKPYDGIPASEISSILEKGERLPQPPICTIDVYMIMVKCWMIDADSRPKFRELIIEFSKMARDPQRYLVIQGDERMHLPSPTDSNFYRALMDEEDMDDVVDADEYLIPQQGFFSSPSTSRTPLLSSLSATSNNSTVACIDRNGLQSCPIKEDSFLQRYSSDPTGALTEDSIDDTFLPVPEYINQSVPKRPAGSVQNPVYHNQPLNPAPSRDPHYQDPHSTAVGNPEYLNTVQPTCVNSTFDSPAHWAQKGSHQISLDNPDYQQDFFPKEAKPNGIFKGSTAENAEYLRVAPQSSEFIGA
# Procedure: as §1, §2, §3
# [3] = EGFR[T790M/C797S/d746-750], 1 mM ATP, 1 h at room temperature, read-out: IC50 @T790M - C797S - Del19
# [4] = 1 h at room temperature, read-out: IC50 @L858R
# [5] = EGFR[T790M/C797S/L858R], 1 h at room temperature, read-out: IC50 @T790M- C797S - L858R
# [6] = EGFR Exon19Del, 1 mM ATP, 1 h at room temperature
# [7] = EGFR wild type, 1 h at room temperature, read-out: IC50 @WT
# [8] = EGFR L858R/T790M, 1 h at room temperature, read-out: IC50 @L858R-T790M
# [9] = EGFR (C797S L858R), 1 h at room temperature, read-out: IC50 @L858-C797S
# [10] = BaF3 cells, EGFR DEL19 - C797S, read-out: GI50 DEL19 - C797S/BaF3
# [11] = BaF3 cells, EGFR DEL19 - T790-C797S, read-out: GI50 DEL19 - T790-C797S/BaF3
# [12] = BaF3 cells, EGFR L858R - T790-C797S, read-out: GI50 L858R - T790-C797S/BaF3
# [13] = BaF3 cells, EGFR L858R - T790M, read-out: GI50 L858R - T790M/BaF3
# [14] = BaF3 cells, EGFR L858R, read-out: GI50 L858R/BaF3
# [15] = EGFR DEL19 - T790M, read-out: GI50 DEL19 - T790M
# [16] = EGFR Exon19Del/T790M, 1 h at room temperature, read-out: IC50 @Del19-T790M
# [17] = EGFR (d746-750 C797S), 1 h at room temperature, read-out: IC50 @Del19-C797S
# T1 sequence (P00533 with tags, fused parts or gaps DEL746-750/T790M/C797S limits assumed): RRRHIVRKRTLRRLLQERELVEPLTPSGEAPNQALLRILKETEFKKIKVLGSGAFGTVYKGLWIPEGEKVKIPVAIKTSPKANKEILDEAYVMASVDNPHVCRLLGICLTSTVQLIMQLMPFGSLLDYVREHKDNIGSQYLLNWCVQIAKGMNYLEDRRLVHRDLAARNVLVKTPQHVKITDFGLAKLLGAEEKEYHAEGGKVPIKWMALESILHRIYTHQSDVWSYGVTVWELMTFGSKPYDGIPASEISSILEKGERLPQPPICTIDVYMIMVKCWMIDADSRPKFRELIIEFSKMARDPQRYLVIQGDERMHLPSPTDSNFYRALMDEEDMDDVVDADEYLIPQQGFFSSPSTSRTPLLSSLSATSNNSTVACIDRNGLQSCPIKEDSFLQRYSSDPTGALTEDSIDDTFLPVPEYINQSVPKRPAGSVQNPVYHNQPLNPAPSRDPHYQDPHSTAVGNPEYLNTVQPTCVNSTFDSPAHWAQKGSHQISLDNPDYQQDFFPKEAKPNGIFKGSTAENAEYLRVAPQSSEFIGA
SMILES,"IC50 [1, 3] [nM]",IC50 (EGFR L858R; [4]) [nM],IC50 (EGFR[T790M/C797S/L858R]; [5]) [nM],IC50 (EGFR Exon19Del; [6]) [nM],IC50 (EGFR wild type; [7]) [nM],IC50 (EGFR L858R/T790M; [8]) [nM],IC50 (EGFR (C797S L858R); [9]) [nM],"GI50 [2, 10] [nM]","GI50 [2, 11] [nM]","GI50 [2, 12] [nM]","GI50 [2, 13] [nM]","GI50 [2, 14] [nM]","GI50 [2, 15] [nM]",IC50 (EGFR Exon19Del/T790M; [16]) [nM],IC50 (EGFR (d746-750 C797S); [17]) [nM],other results
"Cc1cc2cc(n1)-c1cnn(C)c1OCCN1CC3CCC(C3)(C1)n1c(nc3ccc(N4CCC(N5CCN(C)CC5)CC4)cc31)NC2=O (single isomer, unassigned) [Example B59B]",6.1,27,4.4,12,360,7.7,9.5,11,12,3,11,36,13,10,5,"GI50 ([2]; BaF3 cells, EGFR L858R - C797S, read-out: GI50 L858R - C797S/BaF3): 27 nM; GI50 (PC-9): 32 nM"
"Cc1cc2cc(n1)-c1cnn(C)c1OCCN1CCOCC(C1)n1c(nc3ccccc31)NC2=O (centres unmarked) [Example B7, 15,21-dimethyl-23,29-dioxa-2,9,11,16,20,21,26-heptaazahexacyclo[24.4.1.1^{13,17}.0^{2,10}.0^{3,8}.0^{18,22}]dotriaconta-3,5,7,9,13(32),14,16,18(22),19-nonaen-12-one]",44,–,1090,1420,> 500,1960,> 5000,–,296,300,723,–,420,109,627,"GI50 ([2]; Mus musculus, BaF3, 72 h, BaF3 cells, EGFR DEL19 - C797S, read-out: GI50 DEL19 - C797S/BaF3): 346 nM; GI50 ([2]; Mus musculus, BaF3, 72 h, BaF3 cells, EGFR L858R - C797S, read-out: GI50 L858R - C797S/BaF3): 334 nM; GI50 ([2]; Mus musculus, BaF3, 72 h, BaF3 cells, EGFR L858R, read-out: GI50 L858R/BaF3): 1900 nM; GI50 (PC-9; Homo sapiens, PC-9, 72 h): 667 nM"
Cc1cc2cc(n1)-c1cnn(C)c1OCCN1CC3CCC(CC3)(C1)n1c(nc3ccc(N4CCC5(CCN(C)CC5)C4)cc31)NC2=O [Example B38],8.2,560,14,38,> 5000,37,300,24,–,19,38,81,10,21,26,–
"CN(C)CCC1CN(c2ccc3nc4n(c3c2)C23CCC(CN(CCOc5c(cnn5C)-c5cc(cn(C)c5=O)C(=O)N4)C2)C3)C1 (single isomer, unassigned) [Example A95A]",–,–,–,–,–,–,–,–,–,–,–,–,–,–,–,"IC50 ([1]; EGFR T790M-C797S-Del19, 1 mM ATP, 1 h, room temperature, read-out: IC50 (nM) @T790M - C797S - Del19): > 5000 nM; IC50 (EGFR L858R; 1 h, room temperature, read-out: IC50 (nM) @L858R): 4640 nM; IC50 (EGFR[T790M/C797S/L858R]; EGFR T790M-C797S-L858R, 1 h, room temperature, read-out: IC50 (nM) @T790M- C797S - L858R): > 5000 nM; IC50 (EGFR Exon19Del; EGFR Del19, 1 mM ATP, 1 h, room temperature): 864 nM; IC50 (EGFR wild type; EGFR WT, 1 h, room temperature, read-out: IC50 (nM) @WT): > 5000 nM; IC50 (EGFR L858R/T790M; EGFR L858R-T790M, 1 h, room temperature, read-out: IC50 (nM) @L858R-T790M): > 5000 nM; IC50 (EGFR (C797S L858R); EGFR L858-C797S, 1 h, room temperature, read-out: IC50 (nM) @L858-C797S): > 5000 nM; IC50 (EGFR Exon19Del/T790M; EGFR Del19-T790M, 1 h, room temperature, read-out: IC50 (nM) @Del19-T790M): > 5000 nM; IC50 (EGFR (d746-750 C797S); EGFR Del19-C797S, 1 h, room temperature, read-out: IC50 (nM) @Del19-C797S): 899 nM"

# — patent publication US20260365670A1, “EGFR INHIBITORS AND USES THEREOF” (DIZAL (JIANGSU) PHARMACEUTICAL CO., LTD., priority 2022, published 2026)
